{"source": "paper PMC5021521", "about": "“Coordinated recruitment of Spir actin nucleators and myosin V motors to Rab11 vesicle membranes” (eLife, 2016)", "molecules": {"B1": {"name": "Rab11GTP: Rab11a-Q70L(GTP) captured through its His6-tag (protein, UniProt P62491 2-213, looked up, variant Q70L)", "Ras-related protein Rab-11A": "GTRDDEYDYLFKVVLIGDSGVGKSNLLSRFTRNEFNLESKSTIGVEFATRSIQVDGKTIKAQIWDTAGLERYRAITSAYYRGAVGALLVYDIAKHLTYENVERWLKELRDHADSNIVIMLVGNKSDLRHLRAVPTDEARAFAEKNGLSFIETSALDSTNVEAAFQTILTEIYRIVSQKQMSDRRENDMSPSNNVVPIHVPPTTENKPKVQCC", "modifications": "His6 tag; GTP-bound"}}, "format_in_all_cases": "binding", "key": {"MyoVb-GTD [1]": {"biological_target": "T1, MyoVb-GTD (Homo sapiens, UniProt Q9ULV0)", "T1 construct": "aa 1456 - 1848 (BamHI / XhoI); His6 (6xHis) with rTEV site (N, cleaved yes); made in house; host or cells: Escherichia coli BL21(DE3) or BL21-CodonPlus-RILP", "T1 sequence (Q9ULV0 1456-1848)": "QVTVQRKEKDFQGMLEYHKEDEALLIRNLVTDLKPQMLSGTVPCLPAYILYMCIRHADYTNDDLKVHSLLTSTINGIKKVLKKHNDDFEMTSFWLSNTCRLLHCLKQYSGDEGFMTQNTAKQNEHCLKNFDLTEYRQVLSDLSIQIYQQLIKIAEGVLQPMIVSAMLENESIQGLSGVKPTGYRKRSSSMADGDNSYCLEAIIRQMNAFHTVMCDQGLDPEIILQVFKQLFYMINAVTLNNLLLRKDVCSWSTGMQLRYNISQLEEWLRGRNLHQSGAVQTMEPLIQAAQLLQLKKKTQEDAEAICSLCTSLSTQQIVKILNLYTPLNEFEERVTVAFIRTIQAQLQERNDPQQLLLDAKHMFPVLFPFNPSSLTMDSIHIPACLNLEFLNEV", "assay": "Fluorescence anisotropy, fluorescein-labeled Spir-2 peptide", "method": "(§1) Fluorescence anisotropy measurements were performed on a PTI Quanta-Master QM4CW spectrofluorometer (PTI, Lawrenceville, NJ, USA) at 25°C using a 10 mm wide quartz cell. Bandwidths of excitation and emission monochromators were set respectively at 5 and 15 nm. Fluorescence anisotropy, expressed in millianisotropy units, was calculated according to the equation A=IVV−GIVH/IVV+2GIVH\n(§2) with A is anisotropy, G = IHV/IHH is a correction factor for wavelength-dependent distortion, and I is the fluorescence intensity component. Anisotropy values were averaged from 30 different acquisitions. The cell was charged with 1 µM of fluorescein labeled Spir-2-401-427 peptide in a final volume of 1 ml in buffer (100 mM Tris-HCl pH 8.0, 150 mM NaCl, 2 mM MgCl2, 2 mM TCEP, 5% (v/v) glycerol) and titrated with MyoVa-GTD or MyoVb-GTD (50 nM–5 µM). The binding isotherms were fitted to obtain the equilibrium dissociation constants Kd and standard errors, by using the Origin 2015 software that implements Levenberg Marquardt iterative minimization algorithms, using the equation y=F0+Fm−F0/2P(P+x+Kd−(P+x+Kd)^2−4Px)\n(§3) with y represents the fluorescence anisotropy, x the concentration of MyoV-GTD, F0 the initial anisotropy, Fm the maximum anisotropy, and P the peptide concentration. Experiments were repeated twice with two different protein preparations."}, "MyoVc-GTD": {"biological_target": "T2, MyoVc-GTD (Homo sapiens, UniProt Q9NQX4)", "T2 construct": "aa 1350 - 1742 (BamHI / XhoI); His6 (6xHis) with rTEV site (N, cleaved yes); made in house; host or cells: Escherichia coli BL21(DE3) or BL21-CodonPlus-RILP", "T2 sequence (Q9NQX4 1350-1742)": "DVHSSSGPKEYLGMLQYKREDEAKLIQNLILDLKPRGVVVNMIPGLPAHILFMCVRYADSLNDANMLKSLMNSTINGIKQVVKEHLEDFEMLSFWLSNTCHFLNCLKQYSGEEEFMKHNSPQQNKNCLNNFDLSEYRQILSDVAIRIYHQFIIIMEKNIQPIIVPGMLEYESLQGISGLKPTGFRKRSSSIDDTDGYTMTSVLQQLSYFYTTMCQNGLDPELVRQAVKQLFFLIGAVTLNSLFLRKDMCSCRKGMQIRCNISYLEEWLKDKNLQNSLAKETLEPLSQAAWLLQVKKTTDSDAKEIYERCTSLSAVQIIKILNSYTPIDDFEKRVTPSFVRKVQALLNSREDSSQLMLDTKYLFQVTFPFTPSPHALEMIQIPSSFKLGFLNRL", "assay": "Microscale thermophoresis, fluorescein-labeled Spir-2 peptide", "settings": "human Spir-2 aa 401–427", "method": "MST experiments were performed on a Monolith NT.115 system (NanoTemper Technologies, München, Germany) using 5% LED and 30% IR-laser power at 21.5°C. Laser on and off times were set at 30 s and 5 s, respectively. Fluorescein labeled Spir-2 peptide was synthesized by Genscript, the peptide was dissolved in PBS with 0.005% Tween-20 and diluted to 1 μM concentration. A two-fold dilution series was prepared for the MyoVc-GTD in the interaction buffer (50 mM Tris pH 8.0, 250 mM NaCl, 2 mM MgCl2, 2 mM TCEP, 5% (v/v) glycerol) and each dilution point was transferred to the Fluorescein-Spir-2 solution. The final concentrations of MyoVc-GTD ranged from 97 μM to 2.96 nM, the final concentration of the labeled peptide was 500 nM. Samples were filled into premium capillaries (NanoTemper Technologies) for measurements. The experiments were performed with three independent replicates. The affinity was quantified by analyzing the change in normalized fluorescence as a function of the concentration of the titrated peptide using the NTAnalysis software provided by the manufacturer."}, "MyoVa-GTD [2]": {"biological_target": "T3, MyoVa-GTD (Homo sapiens, UniProt Q9Y4I1)", "T3 construct": "aa 1461 - 1853 (BamHI / XhoI); His6 (6xHis) with rTEV site (N, cleaved yes); made in house; host or cells: Escherichia coli BL21(DE3) or BL21-CodonPlus-RILP", "T3 sequence (Q9Y4I1 1463-1855)": "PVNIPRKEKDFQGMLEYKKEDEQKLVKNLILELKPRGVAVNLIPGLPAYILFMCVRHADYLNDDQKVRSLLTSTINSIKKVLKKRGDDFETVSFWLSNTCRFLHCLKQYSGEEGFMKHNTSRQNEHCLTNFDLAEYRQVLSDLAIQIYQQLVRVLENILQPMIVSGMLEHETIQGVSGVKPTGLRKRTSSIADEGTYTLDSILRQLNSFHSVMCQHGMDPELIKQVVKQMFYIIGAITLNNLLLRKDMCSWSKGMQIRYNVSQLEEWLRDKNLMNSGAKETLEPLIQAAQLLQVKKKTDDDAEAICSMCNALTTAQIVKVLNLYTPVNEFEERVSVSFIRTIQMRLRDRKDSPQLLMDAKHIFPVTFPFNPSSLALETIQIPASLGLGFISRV", "assay": "Fluorescence anisotropy, fluorescein-labeled Spir-2 peptide", "settings": "1 µM peptide, MyoVa-GTD 50 nM–5 µM; 100 mM Tris-HCl pH 8.0, 150 mM NaCl, 2 mM MgCl2, 2 mM TCEP, 5% glycerol; 25°C; ± standard error; repeated twice with two protein preparations; read-out: equilibrium dissociation constant (Kd)", "method": "as §1, §2, §3"}, "MyoVa-GTD [3]": {"biological_target": "T3, MyoVa-GTD", "assay": "Surface plasmon resonance, Rab11a captured", "settings": "MyoVa-GTD 10 nM–5 µM over captured Rab11a-Q70L(GTP) or Rab11-wt(GDP); 50 mM Hepes pH 7.5, 100 mM NaCl, 2 mM MgCl2, 1 mM TCEP; 25°C; steady state; mean ± SEM, N = 3; read-out: dissociation equilibrium constant (Kd)", "method": "(§4) The assays were carried out at 25°C in buffer (50 mM Hepes pH 7.5, 100 mM NaCl, 2 mM MgCl2, 1 mM TCEP). 200–250 resonance units (RU; 1RU ≈ 1 pg × mm^−2) of Rab11a-Q70L(GTP) or Rab11-wt(GDP) were captured through their His6-tag on the surface of a NTA sensorchip using a Biacore 2000 instrument (GE Healthcare Life Sciences). MyoVa-GTD or MyoVb-GTD (10 nM–5 µM) were then injected over the tethered Rabs for one minute at a flow rate of […]. The surface was regenerated with a 2-min 0.3 M EDTA incubation and a 1-min 0.1% SDS wash. The real-time interaction profiles were double referenced using the Scrubber 2.0 software (BioLogic Software, Campbell, Australia), both the signals from a reference surface (with a non-relevant protein captured on NTA) and from blank experiments using buffer instead of MyoV-GTD were subtracted. The MyoV-GTD concentration-dependence of the steady-state SPR signals was then analyzed to determine the dissociation equilibrium constants (Kd) of the different complexes using the numerical integration algorithm software Biaevaluation 4.1. Each experiment (10 point 2-fold dilution concentration series each) was repeated in triplicate, yielding mean Kd values and standard errors (SEM)."}, "MyoVb-GTD [4]": {"biological_target": "T1, MyoVb-GTD", "assay": "Surface plasmon resonance, Rab11a captured", "settings": "MyoVb-GTD 10 nM–5 µM over captured Rab11a-Q70L(GTP) or Rab11-wt(GDP); 50 mM Hepes pH 7.5, 100 mM NaCl, 2 mM MgCl2, 1 mM TCEP; 25°C; steady state; mean ± SEM, N = 3; read-out: dissociation equilibrium constant (Kd)", "method": "as §4"}}, "note": "Peptide text beside a SMILES is read from it. * marks the point of attachment. 5FAM = O=C1OC2(c3ccc(O)cc3Oc3cc(O)ccc32)c2ccc(C(=O)*)cc21; Ahx = NCCCCCC(=O)O", "data": [{"molecule": "QRPRPRVLLKAPTLAEMEEMNTSEEEE [Spir-2-GTBM]", "values": [{"measurement": "binding affinity in words", "setting": "MyoVb-GTD [1]; human Spir-2 aa 401–427", "result": "low micromolar affinity"}, {"measurement": "binding affinity in words", "setting": "MyoVc-GTD", "result": "micromolar range affinity"}]}, {"molecule": "CSCC[C@H](NC(=O)[C@H](CCC(=O)O)NC(=O)[C@H](C)NC(=O)[C@H](CC(C)C)NC(=O)[C@@H](NC(=O)[C@@H]1CCCN1C(=O)[C@H](C)NC(=O)[C@H](CCCCN)NC(=O)[C@H](CC(C)C)NC(=O)[C@H](CC(C)C)NC(=O)[C@@H](NC(=O)[C@H](CCCNC(=N)N)NC(=O)[C@@H]1CCCN1C(=O)[C@H](CCCNC(=N)N)NC(=O)[C@@H]1CCCN1C(=O)[C@H](CCCNC(=N)N)NC(=O)[C@H](CCC(N)=O)NC(=O)CCCCCNC(=O)c1ccc2c(c1)C(=O)OC21c2ccc(O)cc2Oc2cc(O)ccc21)C(C)C)[C@@H](C)O)C(=O)N[C@@H](CCC(=O)O)C(=O)N[C@@H](CCC(=O)O)C(=O)N[C@@H](CCSC)C(=O)N[C@@H](CC(N)=O)C(=O)N[C@H](C(=O)N[C@@H](CO)C(=O)N[C@@H](CCC(=O)O)C(=O)N[C@@H](CCC(=O)O)C(=O)N[C@@H](CCC(=O)O)C(=O)N[C@@H](CCC(=O)O)C(=O)O)[C@@H](C)O", "note": "[Fluorescein-Spir-2-GTBM] ({5FAM-Ahx}-QRPRPRVLLKAPTLAEMEEMNTSEEEE-OH)", "values": [{"measurement": "Kd", "setting": "MyoVa-GTD [2]", "result": "0.9 ± 0.11", "unit": "µM"}, {"measurement": "Kd", "setting": "MyoVb-GTD [1]; 1 µM peptide, MyoVb-GTD 50 nM–5 µM, 100 mM Tris-HCl pH 8.0, 150 mM NaCl, 2 mM MgCl2, 2 mM TCEP, 5% glycerol, 25°C, ± standard error, repeated twice with two protein preparations, read-out: equilibrium dissociation constant (Kd)", "result": "2 ± 0.07", "unit": "µM"}]}, {"molecule": "B1", "values": [{"measurement": "Kd", "setting": "MyoVa-GTD [3]", "result": "0.203 ± 0.042", "unit": "µM"}, {"measurement": "Kd", "setting": "MyoVb-GTD [4]", "result": "1.37 ± 0.24", "unit": "µM"}]}]}
